{
  "source": "patent US8748086B2",
  "about": "“Aqueous solution for the preservation of tissues and organs” (Universidad de Barcelona, priority 2008, dated 2014)",
  "origin": "cited, not measured here",
  "key": {"[1]": {"tested_on": "hearts", "settings": "tacrolimus in UW preservation solution; Rajesh et al. 2003"}, "[2]": {"tested_on": "non-steatotic and steatotic livers", "settings": "prolonged ischemic periods; Ben Mosbah et al. 2006"}},
  "data": [
    {"smiles": "C=CC[C@@H]1/C=C(\\C)C[C@H](C)C[C@H](OC)[C@H]2O[C@@](O)(C(=O)C(=O)N3CCCC[C@H]3C(=O)O[C@H](/C(C)=C/[C@@H]3CC[C@@H](O)[C@H](OC)C3)[C@H](C)[C@@H](O)CC1=O)[C@H](C)C[C@@H]2OC", "note": "[tacrolimus, Tacrolimus]", "values": [
      {"measurement": "effect on preservation of hearts", "setting": "[1]", "result": "failed to have any effect on preservation"}
    ]},
    {"smiles": "COc1ccc(CN2CCNCC2)c(OC)c1OC", "note": "[trimetazidine]", "values": [
      {"measurement": "capacity of the preservation solution to protect livers", "setting": "[2]", "result": "improved the capacity of this standard preservation solution to protect"}
    ]}
  ]
}
